# Data: ChEMBL document CHEMBL1153245, “A profile of the in vitro anti-tumor activity of imidazolium-based ionic liquids” (2010)
# How the values were obtained:
# Type in all cases: functional
# ACHN = assay: Anticancer activity against human ACHN cells assessed cell growth at 10 uM after 48 hrs by sulforhodamine B assay relative to control
# CAKI-1 = assay: Anticancer activity against human Caki1 cells assessed cell growth at 10 uM after 48 hrs by sulforhodamine B assay relative to control
# RXF 393 = assay: Anticancer activity against human RXF393 cells assessed cell growth at 10 uM after 48 hrs by sulforhodamine B assay relative to control
# SN12C = assay: Anticancer activity against human SN12C cells assessed cell growth at 10 uM after 48 hrs by sulforhodamine B assay relative to control
# TK-10 = assay: Anticancer activity against human TK10 cells assessed cell growth at 10 uM after 48 hrs by sulforhodamine B assay relative to control
# UO-31 = assay: Anticancer activity against human UO31 cells assessed cell growth at 10 uM after 48 hrs by sulforhodamine B assay relative to control
# PC-3 = assay: Anticancer activity against human PC3 cells assessed cell growth at 10 uM after 48 hrs by sulforhodamine B assay relative to control
# DU-145 = assay: Anticancer activity against human DU145 cells assessed cell growth at 10 uM after 48 hrs by sulforhodamine B assay relative to control
# MCF7 = assay: Anticancer activity against human MCF7 cells assessed cell growth at 10 uM after 48 hrs by sulforhodamine B assay relative to control
# MDA-MB-231 = assay: Anticancer activity against human MDA-MB-231 cells assessed cell growth at 10 uM after 48 hrs by sulforhodamine B assay relative to control
# MDA-MB-435 = assay: Anticancer activity against human MDA-MB-435 cells assessed cell growth at 10 uM after 48 hrs by sulforhodamine B assay relative to control
# BT-549 = assay: Anticancer activity against human BT549 cells assessed cell growth at 10 uM after 48 hrs by sulforhodamine B assay relative to control
# T47D = assay: Anticancer activity against human T47D cells assessed cell growth at 10 uM after 48 hrs by sulforhodamine B assay relative to control
# MDA-MB-468 = assay: Anticancer activity against human MDA-MB-468 cells assessed cell growth at 10 uM after 48 hrs by sulforhodamine B assay relative to control
# [1] = Anticancer activity against human RPMI8266 cells assessed cell growth at 10 uM after 48 hrs by sulforhodamine B assay relative to control
# HOP-62 = assay: Anticancer activity against human HOP62 cells assessed cell growth at 10 uM after 48 hrs by sulforhodamine B assay relative to control
# HOP-92 = assay: Anticancer activity against human HOP92 cells assessed cell growth at 10 uM after 48 hrs by sulforhodamine B assay relative to control
# NCI-H23 = assay: Anticancer activity against human NCI-H23 cells assessed cell growth at 10 uM after 48 hrs by sulforhodamine B assay relative to control
# NCI-H322M = assay: Anticancer activity against human NCI-H322M cells assessed cell growth at 10 uM after 48 hrs by sulforhodamine B assay relative to control
# NCI-H460 = assay: Anticancer activity against human NCI-H460 cells assessed cell growth at 10 uM after 48 hrs by sulforhodamine B assay relative to control
# NCI-H522 = assay: Anticancer activity against human NCI-H522 cells assessed cell growth at 10 uM after 48 hrs by sulforhodamine B assay relative to control
# HCT-116 = assay: Anticancer activity against human HCT116 cells assessed cell growth at 10 uM after 48 hrs by sulforhodamine B assay relative to control
# HCT-15 = assay: Anticancer activity against human HCT15 cells assessed cell growth at 10 uM after 48 hrs by sulforhodamine B assay relative to control
# KM12 = assay: Anticancer activity against human KM12 cells assessed cell growth at 10 uM after 48 hrs by sulforhodamine B assay relative to control
# SW-620 = assay: Anticancer activity against human SW620 cells assessed cell growth at 10 uM after 48 hrs by sulforhodamine B assay relative to control
# SF-268 = assay: Anticancer activity against human SF268 cells assessed cell growth at 10 uM after 48 hrs by sulforhodamine B assay relative to control
# SF-295 = assay: Anticancer activity against human SF295 cells assessed cell growth at 10 uM after 48 hrs by sulforhodamine B assay relative to control
# SF-539 = assay: Anticancer activity against human SF539 cells assessed cell growth at 10 uM after 48 hrs by sulforhodamine B assay relative to control
# SNB-19 = assay: Anticancer activity against human SNB19 cells assessed cell growth at 10 uM after 48 hrs by sulforhodamine B assay relative to control
# SNB-75 = assay: Anticancer activity against human SNB75 cells assessed cell growth at 10 uM after 48 hrs by sulforhodamine B assay relative to control
# U-251 = assay: Anticancer activity against human U251 cells assessed cell growth at 10 uM after 48 hrs by sulforhodamine B assay relative to control
# LOX IMVI = assay: Anticancer activity against human LOXIMVI cells assessed cell growth at 10 uM after 48 hrs by sulforhodamine B assay relative to control
# Malme-3M = assay: Anticancer activity against human MALME-3M cells assessed cell growth at 10 uM after 48 hrs by sulforhodamine B assay relative to control
# SK-MEL-2 = assay: Anticancer activity against human SK-MEL-2 cells assessed cell growth at 10 uM after 48 hrs by sulforhodamine B assay relative to control
# SK-MEL-28 = assay: Anticancer activity against human SK-MEL-28 cells assessed cell growth at 10 uM after 48 hrs by sulforhodamine B assay relative to control
# UACC-257 = assay: Anticancer activity against human UACC257 cells assessed cell growth at 10 uM after 48 hrs by sulforhodamine B assay relative to control
# IGROV-1 = assay: Anticancer activity against human IGROV1 cells assessed cell growth at 10 uM after 48 hrs by sulforhodamine B assay relative to control
# OVCAR-4 = assay: Anticancer activity against human OVCAR4 cells assessed cell growth at 10 uM after 48 hrs by sulforhodamine B assay relative to control
# OVCAR-5 = assay: Anticancer activity against human OVCAR5 cells assessed cell growth at 10 uM after 48 hrs by sulforhodamine B assay relative to control
# OVCAR-8 = assay: Anticancer activity against human OVCAR8 cells assessed cell growth at 10 uM after 48 hrs by sulforhodamine B assay relative to control
# SK-OV-3 = assay: Anticancer activity against human SKOV3 cells assessed cell growth at 10 uM after 48 hrs by sulforhodamine B assay relative to control
# HL-60(TB) = assay: Anticancer activity against human HL-60(TB) cells assessed cell growth at 10 uM after 48 hrs by sulforhodamine B assay relative to control
# CCRF-CEM = assay: Anticancer activity against human CCRF-CEM cells assessed cell growth at 10 uM after 48 hrs by sulforhodamine B assay relative to control
compound,measurement,setting,value
Cn1cc[n+](Cc2ccccc2)c1.F[P-](F)(F)(F)(F)F,Activity,ACHN,96.35%
same,Activity,CAKI-1,83.75%
same,Activity,RXF 393,102.92%
same,Activity,SN12C,107.17%
same,Activity,TK-10,133.23%
same,Activity,UO-31,91.78%
same,Activity,PC-3,98.08%
same,Activity,DU-145,118.22%
same,Activity,MCF7,102.21%
same,Activity,MDA-MB-231,113.82%
same,Activity,MDA-MB-435,117.55%
same,Activity,BT-549,112.82%
same,Activity,T47D,90.49%
same,Activity,MDA-MB-468,101.43%
same,Activity,[1],131.72%
same,Activity,HOP-62,27.45%
same,Activity,HOP-92,109.04%
same,Activity,NCI-H23,70.66%
same,Activity,NCI-H322M,116.31%
same,Activity,NCI-H460,106.8%
same,Activity,NCI-H522,99.72%
same,Activity,HCT-116,107.98%
same,Activity,HCT-15,106.14%
same,Activity,KM12,110.94%
same,Activity,SW-620,118.52%
same,Activity,SF-268,108.05%
same,Activity,SF-295,115.95%
same,Activity,SF-539,106.41%
same,Activity,SNB-19,100.88%
same,Activity,SNB-75,83.18%
same,Activity,U-251,101.41%
same,Activity,LOX IMVI,100.88%
same,Activity,Malme-3M,118.68%
same,Activity,SK-MEL-2,108.02%
same,Activity,SK-MEL-28,125.12%
same,Activity,UACC-257,106.42%
same,Activity,IGROV-1,95.43%
same,Activity,OVCAR-4,107.15%
same,Activity,OVCAR-5,101.34%
same,Activity,OVCAR-8,108.71%
same,Activity,SK-OV-3,109.97%
same,Activity,HL-60(TB),44.77%
same,Activity,CCRF-CEM,113.04%
COCC[n+]1ccn(C)c1.O=S(=O)([N-]S(=O)(=O)C(F)(F)F)C(F)(F)F,Activity,ACHN,96.19%
same,Activity,CAKI-1,91.87%
same,Activity,RXF 393,103.9%
same,Activity,SN12C,96.96%
same,Activity,TK-10,123.77%
same,Activity,UO-31,71.37%
same,Activity,PC-3,78.17%
same,Activity,DU-145,99.43%
same,Activity,MCF7,101.56%
same,Activity,MDA-MB-231,120.14%
same,Activity,MDA-MB-435,117.7%
same,Activity,BT-549,96.44%
same,Activity,T47D,100.59%
same,Activity,MDA-MB-468,106.36%
same,Activity,[1],62.23%
same,Activity,HOP-62,93.93%
same,Activity,HOP-92,71.88%
same,Activity,NCI-H23,96.12%
same,Activity,NCI-H322M,102.08%
same,Activity,NCI-H460,108.75%
same,Activity,NCI-H522,84.3%
same,Activity,HCT-116,102.12%
same,Activity,HCT-15,101.44%
same,Activity,KM12,105.57%
same,Activity,SW-620,99.89%
same,Activity,SF-268,107.22%
same,Activity,SF-295,112.28%
same,Activity,SF-539,94.09%
same,Activity,SNB-19,93.88%
same,Activity,SNB-75,80.79%
same,Activity,U-251,91.58%
same,Activity,LOX IMVI,92.96%
same,Activity,Malme-3M,125.61%
same,Activity,SK-MEL-2,93.96%
same,Activity,SK-MEL-28,106.63%
same,Activity,UACC-257,100.25%
same,Activity,IGROV-1,77.53%
same,Activity,OVCAR-4,105.25%
same,Activity,OVCAR-5,112.96%
same,Activity,OVCAR-8,96.68%
same,Activity,SK-OV-3,107.49%
same,Activity,HL-60(TB),103.77%
same,Activity,CCRF-CEM,55.66%
